According to patent US11008313B2, “Substituted 1-methyl-1,2,3,4-tetrahydroisoquinoline molecules as PCSK9 allosteric binders” (Merck Sharp & Dohme Corp., priority 2016, dated 2021):
Where “and” joins values, the source holds several entries; their conditions need not be identical. Identical values can stand only once. Like-named read-outs stand apart in the source and are kept apart here.

Columns and labels:
[1] = target: T1, HEK293 cells stably overexpressing PCSK9 (Homo sapiens, UniProt Q8NBP7); assay: Protein degradation assay (Western Blot/Sally Sue assay); type: cell-based; conditions: 24 hrs compound treatment, serum free DMEM
T1 construct: expressed in transfected cells
Description: Samples were run on the Sally Simple Western system from ProteinSimple (San Jose, Calif.) using default assay conditions. Briefly, 5×10^4 HEK293 cells stably overexpressing PCSK9 were seeded into Collagen I coated 96 well plates and allowed to recover overnight at 37° C. with 5% CO2. After 24 hrs of compound treatment in serum free DMEM cell culture medium, cells were washed with PBS and lysed in 100 ul RIPA buffer (Teknova) supplemented with protease inhibitors and subsequently mixed with fluorescent standards as per manufacturer's specifications, followed by denaturation at 95° C. for 5 minutes. Anti-PCSK9 mAb antibody (Abbomax, Cat. No. 601-650) was used for PCSK9 detection. The reported DC50 values represent the effective concentration of compound to lower PCSK9 protein levels, pro and mature, by 50%.

PCSK9 = PCSK9 (Homo sapiens, UniProt Q8NBP7); assay: Fluorescence polarization competition binding assay (probe: compound of Example 57); conditions: 2 μM PCSK9, 50 nM compound of Example 57 as probe, overnight incubation; read-out: FP IC
Chain of PCSK9 (Q8NBP7 153-692): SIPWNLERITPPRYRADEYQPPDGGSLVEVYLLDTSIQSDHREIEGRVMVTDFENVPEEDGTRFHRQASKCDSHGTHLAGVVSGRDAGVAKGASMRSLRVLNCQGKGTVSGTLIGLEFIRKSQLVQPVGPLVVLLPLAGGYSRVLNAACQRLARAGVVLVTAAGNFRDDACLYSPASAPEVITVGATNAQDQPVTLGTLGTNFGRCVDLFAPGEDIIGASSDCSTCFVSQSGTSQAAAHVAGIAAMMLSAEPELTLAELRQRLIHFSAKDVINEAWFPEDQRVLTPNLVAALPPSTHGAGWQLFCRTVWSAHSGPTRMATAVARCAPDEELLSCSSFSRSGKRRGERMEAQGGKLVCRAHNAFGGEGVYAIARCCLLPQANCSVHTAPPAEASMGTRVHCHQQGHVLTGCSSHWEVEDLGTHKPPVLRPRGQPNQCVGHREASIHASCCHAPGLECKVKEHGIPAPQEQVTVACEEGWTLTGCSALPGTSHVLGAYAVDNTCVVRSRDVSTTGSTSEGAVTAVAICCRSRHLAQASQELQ
Procedure, shortened: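 Competition fluorescence-polarization binding: 2 μM PCSK9 with 50 nM fluorescent probe in 20 mM HEPES pH 7.5, 150 mM NaCl, 1 mM CaCl2, 0.005% P-20, incubated with test compound overnight in the dark. Anisotropy read; % inhibition relative to DMSO wells and probe-without-PCSK9 wells.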

[2] = mature PCSK9 protein level lowered by 50%, read-out: PCSK9 DC50 (Mature)
[3] = pro PCSK9 protein level lowered by 50%, read-out: PCSK9 DC50 (Pro)
[4] = mature PCSK9 protein level lowered by 50%
[5] = pro PCSK9 protein level lowered by 50%

DC50 [1, 2] [nM]	DC50 [1, 3] [nM]	IC50 (PCSK9)	PCSK9 DC50 (Mature) μM [1, 4]	PCSK9 DC50 (Pro) μM [1, 5]	Compound
4240	6180	188 nM and 578 nM			CC(C)Cc1ccc([C@H](C)C(=O)NCCOCCOCCOc2cc3c(cc2Oc2ccc(-c4ccc(C(=O)O)cc4)c(F)c2)[C@@](C)(CC(=O)Nc2nccs2)NCC3)cc1 [Example 93]
8520	1360	76.9 nM			C[C@]1(CC(=O)Nc2nccs2)NCCc2cc(OCCOCCOCCNC(=O)CC34CC5CC(CC(C5)C3)C4)c(Oc3ccc(-c4ccc(C(=O)O)cc4)c(F)c3)cc21 [Example 94, 4-(((R)-6-(2-(2-(2-(2-((3r,5r,7r)-adamantan-1-yl)acetamido)ethoxy)ethoxy)ethoxy)-1-methyl-1-(2-oxo-2-(thiazol-2-ylamino)ethyl)-1,2,3,4-tetrahydroisoquinolin-7-yl)oxy)-2′-fluoro-[1,1′-biphenyl]-4-carboxylic acid]
		107 nM	inactive	Inactive	CC(C)C[C@H](NC(=O)[C@@H](O)[C@H](N)Cc1ccccc1)C(=O)NCCOCCOCCOc1cc2c(cc1Oc1ccc(-c3ccc(C(=O)O)cc3)c(F)c1)[C@@](C)(CC(=O)Nc1nccs1)NCC2 [Example 95, 4′-(((R)-6-(((11S,14S,15R)-15-amino-14-hydroxy-11-isobutyl-10,13-dioxo-16-phenyl-3,6-dioxa-9,12-diazahexadecyl)oxy)-1-methyl-1-(2-oxo-2-(thiazol-2-ylamino)ethyl)-1,2,3,4-tetrahydroisoquinolin-7-yl)oxy)-2′-fluoro-[1,1′-biphenyl]-4-carboxylic acid]
1050	6550	110 nM			C[C@]1(CC(=O)Nc2nccs2)NCCc2cc(OCCOCCOCCOCCNC(=O)CC34CC5CC(CC(C5)C3)C4)c(Oc3ccc(-c4ccc(C(=O)O)cc4)c(F)c3)cc21 [Example 96]
		130 nM	inactive	Inactive	CC(C)C[C@H](NC(=O)[C@@H](O)[C@H](N)Cc1ccccc1)C(=O)NCCOCCOCCOCCOc1cc2c(cc1Oc1ccc(-c3ccc(C(=O)O)cc3)c(F)c1)[C@@](C)(CC(=O)Nc1nccs1)NCC2 [Example 97, 4′-(((R)-6-(((14S,17S,18R)-18-amino-17-hydroxy-14-isobutyl-13,16-dioxo-19-phenyl-3,6,9-trioxa-12,15-diazanonadecyl)oxy)-1-methyl-1-(2-oxo-2-(thiazol-2-ylamino)ethyl)-1,2,3,4-tetrahydroisoquinolin-7-yl)oxy)-2′-fluoro-[1,1′-biphenyl]-4-carboxylic acid]
5070	6080	260 nM			CC(C)Cc1ccc([C@H](C)C(=O)NCCOCCOCCOCCOc2cc3c(cc2Oc2ccc(-c4ccc(C(=O)O)cc4)c(F)c2)[C@@](C)(CC(=O)Nc2nccs2)NCC3)cc1 [Example 98, 2′-fluoro-4′-(((R)-6-(((S)-14-(4-isobutylphenyl)-13-oxo-3,6,9-trioxa-12-azapentadecyl)oxy)-1-methyl-1-(2-oxo-2-(thiazol-2-ylamino)ethyl)-1,2,3,4-tetrahydroisoquinolin-7-yl)oxy)-[1,1′-biphenyl]-4-carboxylic acid]
		130 nM	inactive	Inactive	COCCOc1cc2c(cc1Oc1ccc(-c3ccc(C(=O)O)cc3)c(F)c1)[C@@](C)(CC(=O)Nc1nccs1)NCC2 [Example 101, (R)-2′-fluoro-4′-((6-(2-methoxyethoxy)-1-methyl-1-(2-oxo-2-(thiazol-2-ylamino)ethyl)-1,2,3,4-tetrahydroisoquinolin-7-yl)oxy)-[1,1′-biphenyl]-4-carboxylic acid]
		162 nM	inactive	Inactive	Cc1ncsc1-c1ccc(CNC(=O)[C@@H]2C[C@@H](O)CN2C(=O)[C@@H](NC(=O)COCCOCC(=O)NCCOCCOc2cc3c(cc2Oc2ccc(-c4ccc(C(=O)O)cc4)c(F)c2)[C@@](C)(CC(=O)Nc2nccs2)NCC3)C(C)(C)C)cc1 [Example 102, 2′-fluoro-4′-(((R)-6-(((S)-16-((2S,4R)-4-hydroxy-2-((4-(4-methylthiazol-5-yl)benzyl)carbamoyl)pyrrolidine-1-carbonyl)-17,17-dimethyl-7,14-dioxo-3,9,12-trioxa-6,15-diazaoctadecyl)oxy)-1-methyl-1-(2-oxo-2-(thiazol-2-ylamino)ethyl)-1,2,3,4-tetrahydroisoquinolin-7-yl)oxy)-[1,1′-biphenyl]-4-carboxylic acid]
		162 nM	inactive	Inactive	Cc1ncsc1-c1ccc(CNC(=O)[C@@H]2C[C@@H](O)CN2C(=O)[C@@H](NC(=O)COCCOCCOCC(=O)NCCOCCOc2cc3c(cc2Oc2ccc(-c4ccc(C(=O)O)cc4)c(F)c2)[C@@](C)(CC(=O)Nc2nccs2)NCC3)C(C)(C)C)cc1 [Example 103, 2′-fluoro-4′-(((R)-6-(((S)-19-((2S,4R)-4-hydroxy-2-((4-(4-methylthiazol-5-yl)benzyl)carbamoyl)pyrrolidine-1-carbonyl)-20,20-dimethyl-7,17-dioxo-3,9,12,15-tetraoxa-6,18-diazahenicosyl)oxy)-1-methyl-1-(2-oxo-2-(thiazol-2-ylamino)ethyl)-1,2,3,4-tetrahydroisoquinolin-7-yl)oxy)-[1,1′-biphenyl]-4-carboxylic acid]
7520	1530	222 nM			C[C@]1(CC(=O)Nc2nccs2)NCCc2cc(OCCOCCNC(=O)CC34CC5CC(CC(C5)C3)C4)c(Oc3ccc(-c4ccc(C(=O)O)cc4)c(F)c3)cc21 [Example 104, 4′-(((R)-6-(2-(2-(2-((3r,5r,7r)-adamantan-1-yl)acetamido)ethoxy)ethoxy)-1-methyl-1-(2-oxo-2-(thiazol-2-ylamino)ethyl)-1,2,3,4-tetrahydroisoquinolin-7-yl)oxy)-2′-fluoro-[1,1′-biphenyl]-4-carboxylic acid]
		831 nM	inactive	Inactive	COC(=O)c1ccc(-c2ccc(Oc3cc4c(cc3OCCOCCNC(=O)COCC(=O)N[C@H](C(=O)N3C[C@H](O)C[C@H]3C(=O)NCc3ccc(-c5scnc5C)cc3)C(C)(C)C)CCN[C@]4(C)CC(=O)Nc3nccs3)cc2F)cc1 [Example 107, methyl 2′-fluoro-4′-(((R)-6-(((S)-13-((2S,4R)-4-hydroxy-2-((4-(4-methylthiazol-5-yl)benzyl)carbamoyl)pyrrolidine-1-carbonyl)-14,14-dimethyl-7,11-dioxo-3,9-dioxa-6,12-diazapentadecyl)oxy)-1-methyl-1-(2-oxo-2-(thiazol-2-ylamino)ethyl)-1,2,3,4-tetrahydroisoquinolin-7-yl)oxy)-[1,1′-biphenyl]-4-carboxylate]
		578 nM	inactive	Inactive	CC(C)Cc1ccc([C@H](C)C(=O)NCCOCCOc2cc3c(cc2Oc2ccc(-c4ccc(C(=O)O)cc4)c(F)c2)[C@@](C)(CC(=O)Nc2nccs2)NCC3)cc1 [Example 108]

Compound	DC50 [1, 2] [nM]	DC50 [1, 3] [nM]	IC50 (PCSK9)	PCSK9 DC50 (Mature) μM [1, 4]	PCSK9 DC50 (Pro) μM [1, 5]
CC(C)(C)OC(=O)/N=C(/NCCC[C@H](NC(=O)OC(C)(C)C)C(=O)NCCOCCOCCOCCOc1cc2c(cc1Oc1ccc(-c3ccc(C(=O)O)cc3)c(F)c1)[C@@](C)(CC(=O)Nc1nccs1)NCC2)NC(=O)OC(C)(C)C [Example 99, 4′-(((R)-6-(((S,Z)-6,11-bis((tert-butoxycarbonyl)amino)-2,2-dimethyl-4,12-dioxo-3,16,19,22-tetraoxa-5,7,13-triazatetracos-5-en-24-yl)oxy)-1-methyl-1-(2-oxo-2-(thiazol-2-ylamino)ethyl)-1,2,3,4-tetrahydroisoquinolin-7-yl)oxy)-2′-fluoro-[1,1′-biphenyl]-4-carboxylic acid]	9000	1370	718 nM		
CC(C)C[C@@H](NC(=O)[C@H](O)[C@@H](N)Cc1ccccc1)C(=O)NCCOCCOc1cc2c(cc1Oc1ccc(-c3ccc(C(=O)O)cc3)c(F)c1)[C@@](C)(CC(=O)Nc1nccs1)NCC2 [Example 100, 4′-(((R)-6-(2-(2-((R)-2-((2R,3S)-3-amino-2-hydroxy-4-phenylbutanamido)-4-methylpentanamido)ethoxy)ethoxy)-1-methyl-1-(2-oxo-2-(thiazol-2-ylamino)ethyl)-1,2,3,4-tetrahydroisoquinolin-7-yl)oxy)-2′-fluoro-[1,1′-biphenyl]-4-carboxylic acid]			96.4 nM	inactive	Inactive
CC(C)(C)OC(=O)/N=C(/NCCC[C@@H](NC(=O)OC(C)(C)C)C(=O)NCCOCCOc1cc2c(cc1Oc1ccc(-c3ccc(C(=O)O)cc3)c(F)c1)[C@@](C)(CC(=O)Nc1nccs1)NCC2)NC(=O)OC(C)(C)C [Example 106, 4′-(((R)-6-(((R,Z)-6,11-bis((tert-butoxycarbonyl)amino)-2,2-dimethyl-4,12-dioxo-3,16-dioxa-5,7,13-triazaoctadec-5-en-18-yl)oxy)-1-methyl-1-(2-oxo-2-(thiazol-2-ylamino)ethyl)-1,2,3,4-tetrahydroisoquinolin-7-yl)oxy)-2′-fluoro-[1,1′-biphenyl]-4-carboxylic acid]	3420	4820	655 nM		
